≈ marks a conversion by molar mass, not a printed value.
Test system: M. tuberculosis H37Rv (ATCC 27294)
Test: Antitubercular activity by microdilution method, M. tuberculosis H37Rv
Assay type: cell-based
Settings: Mycobacterium tuberculosis, 264 h, growth similar to well inoculated with 10 CFU, read after 11 days by visual investigation, three replicates

Compound | MIC [µg/mL]
O=C(COc1ccc([N+](=O)[O-])c(F)c1)Nc1cccc(Cl)c1 [Compound 3a, N-(3-Chlorophenyl)-2-(3-fluoro-4-nitrophenoxy)acetamide] | 16 (≈ 49.3 µM)
O=C(COc1ccc([N+](=O)[O-])c(F)c1)Nc1ccc(Cl)c(Cl)c1 [Compound 3b, N-(3,4-Dichlorophenyl)-2-(3-fluoro-4-nitrophenoxy)acetamide] | 32 (≈ 89.1 µM)
O=C(COc1ccc([N+](=O)[O-])c(F)c1)Nc1ccc(Br)cc1F [Compound 3c, N-(4-Bromo-2-fluorophenyl)-2-(3-fluoro-4-nitrophenoxy)acetamide] | 32 (≈ 82.7 µM)
O=C(COc1ccc([N+](=O)[O-])c(F)c1)Nc1ccc(Cl)c(C(F)(F)F)c1 [Compound 3d, N-(4-Chloro-3-(trifluoromethyl)phenyl)-2-(3-fluoro-4-nitrophenoxy)acetamide] | 16 (≈ 40.7 µM)
O=C(COc1ccc([N+](=O)[O-])c(F)c1)Nc1cccc([N+](=O)[O-])c1 [Compound 3e, 2-(3-Fluoro-4-nitrophenoxy)-N-(3-nitrophenyl)acetamide] | 64 (≈ 191 µM)
COc1ccc(NC(=O)COc2ccc([N+](=O)[O-])c(F)c2)c(OC)c1 [Compound 3f, N-(2,4-Dimethoxyphenyl)-2-(3-fluoro-4-nitrophenoxy)acetamide] | 64 (≈ 183 µM)
O=C(COc1ccc([N+](=O)[O-])c(F)c1)Nc1cc(C(F)(F)F)cc(C(F)(F)F)c1 [Compound 3g, N-(3,5-bis(Trifluoromethyl)phenyl)-2-(3-fluoro-4-nitrophenoxy)acetamide] | 8 (≈ 18.8 µM)
O=C(COc1ccc([N+](=O)[O-])c(F)c1)Nc1ccc(F)c(Cl)c1 [Compound 3h, N-(3-Chloro-4-fluorophenyl)-2-(3-fluoro-4-nitrophenoxy)acetamide] | 16 (≈ 46.7 µM)
O=C(COc1ccc([N+](=O)[O-])c(F)c1)Nc1ccc(Br)cc1 [Compound 3i, N-(4-Bromophenyl)-2-(3-fluoro-4-nitrophenoxy)acetamide] | 32 (≈ 86.7 µM)

Test system: A375 human melanoma cells
Test: MTT-based cytotoxicity assay, A375
Assay type: cell-based
Settings: A-375, A375, MTT, 48 h treatment, means ± SEM of three independent experiments, read-out: IC50
Method: (§1) Briefly, cells (2,500/well) were seeded in 96-well plates and cultured for 24 h, followed by treatment with the target compounds for another 48 h. MTT ([…], 20 μL) was added per well and incubated for another 2.5 h at 37 °C. Then the supernatant fluid was removed and 150 μL/well DMSO was added for 15–20 min. The absorbance (OD) of each well was measured at 570 nm, using a SpectraMAX M5 microplate spectrophotometer (Molecular Devices, Sunnyvale, CA, USA). The IC50 Values are means ± SEM of three independent experiments.

Compound | IC50 [µM]
O=C(COc1ccc([N+](=O)[O-])c(F)c1)Nc1cccc(Cl)c1 [Compound 3a, N-(3-Chlorophenyl)-2-(3-fluoro-4-nitrophenoxy)acetamide] | > 40
O=C(COc1ccc([N+](=O)[O-])c(F)c1)Nc1ccc(Cl)c(C(F)(F)F)c1 [Compound 3d, N-(4-Chloro-3-(trifluoromethyl)phenyl)-2-(3-fluoro-4-nitrophenoxy)acetamide] | > 40
O=C(COc1ccc([N+](=O)[O-])c(F)c1)Nc1cc(C(F)(F)F)cc(C(F)(F)F)c1 [Compound 3g, N-(3,5-bis(Trifluoromethyl)phenyl)-2-(3-fluoro-4-nitrophenoxy)acetamide] | 22.6 ± 0.9
O=C(COc1ccc([N+](=O)[O-])c(F)c1)Nc1ccc(F)c(Cl)c1 [Compound 3h, N-(3-Chloro-4-fluorophenyl)-2-(3-fluoro-4-nitrophenoxy)acetamide] | > 40

Test system: A549 lung adenocarcinoma epithelial cells
Test: MTT-based cytotoxicity assay, A549
Assay type: cell-based
Settings: Homo sapiens; A549; MTT, 48 h treatment; means ± SEM of three independent experiments; read-out: IC50
Method: as §1

Compound | IC50 [µM]
O=C(COc1ccc([N+](=O)[O-])c(F)c1)Nc1cccc(Cl)c1 [Compound 3a, N-(3-Chlorophenyl)-2-(3-fluoro-4-nitrophenoxy)acetamide] | > 40
O=C(COc1ccc([N+](=O)[O-])c(F)c1)Nc1ccc(Cl)c(C(F)(F)F)c1 [Compound 3d, N-(4-Chloro-3-(trifluoromethyl)phenyl)-2-(3-fluoro-4-nitrophenoxy)acetamide] | > 40
O=C(COc1ccc([N+](=O)[O-])c(F)c1)Nc1cc(C(F)(F)F)cc(C(F)(F)F)c1 [Compound 3g, N-(3,5-bis(Trifluoromethyl)phenyl)-2-(3-fluoro-4-nitrophenoxy)acetamide] | 38.2 ± 1.5
O=C(COc1ccc([N+](=O)[O-])c(F)c1)Nc1ccc(F)c(Cl)c1 [Compound 3h, N-(3-Chloro-4-fluorophenyl)-2-(3-fluoro-4-nitrophenoxy)acetamide] | > 40

Test system: HepG2 hepatocellular liver carcinoma cells
Test: MTT-based cytotoxicity assay, HepG2
Assay type: cell-based
Settings: Homo sapiens; HepG2; MTT, 48 h treatment; means ± SEM of three independent experiments; read-out: IC50
Method: as §1

Compound | IC50 [µM]
O=C(COc1ccc([N+](=O)[O-])c(F)c1)Nc1cccc(Cl)c1 [Compound 3a, N-(3-Chlorophenyl)-2-(3-fluoro-4-nitrophenoxy)acetamide] | > 40
O=C(COc1ccc([N+](=O)[O-])c(F)c1)Nc1ccc(Cl)c(C(F)(F)F)c1 [Compound 3d, N-(4-Chloro-3-(trifluoromethyl)phenyl)-2-(3-fluoro-4-nitrophenoxy)acetamide] | > 40
O=C(COc1ccc([N+](=O)[O-])c(F)c1)Nc1cc(C(F)(F)F)cc(C(F)(F)F)c1 [Compound 3g, N-(3,5-bis(Trifluoromethyl)phenyl)-2-(3-fluoro-4-nitrophenoxy)acetamide] | 21.6 ± 1.1
O=C(COc1ccc([N+](=O)[O-])c(F)c1)Nc1ccc(F)c(Cl)c1 [Compound 3h, N-(3-Chloro-4-fluorophenyl)-2-(3-fluoro-4-nitrophenoxy)acetamide] | > 40

Test system: HCT116 colorectal carcinoma cells
Test: MTT-based cytotoxicity assay, HCT116
Assay type: cell-based
Settings: Homo sapiens, HCT-116; HCT116; MTT, 48 h treatment; means ± SEM of three independent experiments; read-out: IC50
Method: as §1

Compound | IC50 [µM]
O=C(COc1ccc([N+](=O)[O-])c(F)c1)Nc1cccc(Cl)c1 [Compound 3a, N-(3-Chlorophenyl)-2-(3-fluoro-4-nitrophenoxy)acetamide] | > 40
O=C(COc1ccc([N+](=O)[O-])c(F)c1)Nc1ccc(Cl)c(C(F)(F)F)c1 [Compound 3d, N-(4-Chloro-3-(trifluoromethyl)phenyl)-2-(3-fluoro-4-nitrophenoxy)acetamide] | > 40
O=C(COc1ccc([N+](=O)[O-])c(F)c1)Nc1cc(C(F)(F)F)cc(C(F)(F)F)c1 [Compound 3g, N-(3,5-bis(Trifluoromethyl)phenyl)-2-(3-fluoro-4-nitrophenoxy)acetamide] | 33.8 ± 2
O=C(COc1ccc([N+](=O)[O-])c(F)c1)Nc1ccc(F)c(Cl)c1 [Compound 3h, N-(3-Chloro-4-fluorophenyl)-2-(3-fluoro-4-nitrophenoxy)acetamide] | > 40

Test system: SKOV-3 ovarian carcinoma cells
Test: MTT-based cytotoxicity assay, SKOV-3
Assay type: cell-based
Settings: Homo sapiens, SK-OV-3; SKOV-3; MTT, 48 h treatment; means ± SEM of three independent experiments; read-out: IC50
Method: as §1

Compound | IC50 [µM]
O=C(COc1ccc([N+](=O)[O-])c(F)c1)Nc1cccc(Cl)c1 [Compound 3a, N-(3-Chlorophenyl)-2-(3-fluoro-4-nitrophenoxy)acetamide] | > 40
O=C(COc1ccc([N+](=O)[O-])c(F)c1)Nc1ccc(Cl)c(C(F)(F)F)c1 [Compound 3d, N-(4-Chloro-3-(trifluoromethyl)phenyl)-2-(3-fluoro-4-nitrophenoxy)acetamide] | > 40
O=C(COc1ccc([N+](=O)[O-])c(F)c1)Nc1cc(C(F)(F)F)cc(C(F)(F)F)c1 [Compound 3g, N-(3,5-bis(Trifluoromethyl)phenyl)-2-(3-fluoro-4-nitrophenoxy)acetamide] | 12.2 ± 1.3
O=C(COc1ccc([N+](=O)[O-])c(F)c1)Nc1ccc(F)c(Cl)c1 [Compound 3h, N-(3-Chloro-4-fluorophenyl)-2-(3-fluoro-4-nitrophenoxy)acetamide] | > 40

Test system: Hela Henrietta Lacks strain cancer cells
Test: MTT-based cytotoxicity assay, Hela
Assay type: cell-based
Settings: Homo sapiens; Hela; MTT, 48 h treatment; means ± SEM of three independent experiments; read-out: IC50
Method: as §1

Compound | IC50 [µM]
O=C(COc1ccc([N+](=O)[O-])c(F)c1)Nc1cccc(Cl)c1 [Compound 3a, N-(3-Chlorophenyl)-2-(3-fluoro-4-nitrophenoxy)acetamide] | > 40
O=C(COc1ccc([N+](=O)[O-])c(F)c1)Nc1ccc(Cl)c(C(F)(F)F)c1 [Compound 3d, N-(4-Chloro-3-(trifluoromethyl)phenyl)-2-(3-fluoro-4-nitrophenoxy)acetamide] | 33.2 ± 2.5
O=C(COc1ccc([N+](=O)[O-])c(F)c1)Nc1cc(C(F)(F)F)cc(C(F)(F)F)c1 [Compound 3g, N-(3,5-bis(Trifluoromethyl)phenyl)-2-(3-fluoro-4-nitrophenoxy)acetamide] | 20 ± 1.1
O=C(COc1ccc([N+](=O)[O-])c(F)c1)Nc1ccc(F)c(Cl)c1 [Compound 3h, N-(3-Chloro-4-fluorophenyl)-2-(3-fluoro-4-nitrophenoxy)acetamide] | > 40

Test system: Vero normal African green monkey kidney epithelial cells
Test: MTT-based cytotoxicity assay, Vero
Assay type: cell-based
Settings: Chlorocebus sabaeus; Vero normal cells; MTT, 48 h treatment; means ± SEM of three independent experiments; read-out: IC50
Method: as §1

Compound | IC50 [µM]
O=C(COc1ccc([N+](=O)[O-])c(F)c1)Nc1cccc(Cl)c1 [Compound 3a, N-(3-Chlorophenyl)-2-(3-fluoro-4-nitrophenoxy)acetamide] | > 40
O=C(COc1ccc([N+](=O)[O-])c(F)c1)Nc1ccc(Cl)c(C(F)(F)F)c1 [Compound 3d, N-(4-Chloro-3-(trifluoromethyl)phenyl)-2-(3-fluoro-4-nitrophenoxy)acetamide] | > 40
O=C(COc1ccc([N+](=O)[O-])c(F)c1)Nc1cc(C(F)(F)F)cc(C(F)(F)F)c1 [Compound 3g, N-(3,5-bis(Trifluoromethyl)phenyl)-2-(3-fluoro-4-nitrophenoxy)acetamide] | > 40
O=C(COc1ccc([N+](=O)[O-])c(F)c1)Nc1ccc(F)c(Cl)c1 [Compound 3h, N-(3-Chloro-4-fluorophenyl)-2-(3-fluoro-4-nitrophenoxy)acetamide] | > 40

Test system: not given
Test: not given
Settings: not given

Compound | melting point [°C]
O=C(COc1ccc([N+](=O)[O-])c(F)c1)Nc1cccc(Cl)c1 [Compound 3a, N-(3-Chlorophenyl)-2-(3-fluoro-4-nitrophenoxy)acetamide] | 150 to 151
O=C(COc1ccc([N+](=O)[O-])c(F)c1)Nc1ccc(Cl)c(Cl)c1 [Compound 3b, N-(3,4-Dichlorophenyl)-2-(3-fluoro-4-nitrophenoxy)acetamide] | 175 to 176
O=C(COc1ccc([N+](=O)[O-])c(F)c1)Nc1ccc(Br)cc1F [Compound 3c, N-(4-Bromo-2-fluorophenyl)-2-(3-fluoro-4-nitrophenoxy)acetamide] | 160 to 162
O=C(COc1ccc([N+](=O)[O-])c(F)c1)Nc1ccc(Cl)c(C(F)(F)F)c1 [Compound 3d, N-(4-Chloro-3-(trifluoromethyl)phenyl)-2-(3-fluoro-4-nitrophenoxy)acetamide] | 163 to 164
O=C(COc1ccc([N+](=O)[O-])c(F)c1)Nc1cccc([N+](=O)[O-])c1 [Compound 3e, 2-(3-Fluoro-4-nitrophenoxy)-N-(3-nitrophenyl)acetamide] | 199 to 201
COc1ccc(NC(=O)COc2ccc([N+](=O)[O-])c(F)c2)c(OC)c1 [Compound 3f, N-(2,4-Dimethoxyphenyl)-2-(3-fluoro-4-nitrophenoxy)acetamide] | 174 to 175
O=C(COc1ccc([N+](=O)[O-])c(F)c1)Nc1cc(C(F)(F)F)cc(C(F)(F)F)c1 [Compound 3g, N-(3,5-bis(Trifluoromethyl)phenyl)-2-(3-fluoro-4-nitrophenoxy)acetamide] | 168 to 169
O=C(COc1ccc([N+](=O)[O-])c(F)c1)Nc1ccc(F)c(Cl)c1 [Compound 3h, N-(3-Chloro-4-fluorophenyl)-2-(3-fluoro-4-nitrophenoxy)acetamide] | 166 to 167
O=C(COc1ccc([N+](=O)[O-])c(F)c1)Nc1ccc(Br)cc1 [Compound 3i, N-(4-Bromophenyl)-2-(3-fluoro-4-nitrophenoxy)acetamide] | 166 to 167
